Measured values: publication PMC6915728 (Nature Communications, 2019)
Like-named read-outs stand apart in the source and are kept apart here.

Tests used:
[1] = tested on: AMP-evolved E. coli lines; assay: Cross-resistance / collateral sensitivity: relative MIC change of 38 laboratory-evolved AMP-resistant lines vs parental strain; type: cell-based, Escherichia coli; settings: measured here
[2] = tested on: E. coli gene overexpression; settings: cited from earlier work
Source text: Supplement 41467_2019_13618_MOESM1_ESM.docx, table 1: Supplementary Table 1. Collected examples of E. coli gene overexpression from the literature as a confirmation of our chemical-genetic screen results. | column: Overexpression phenotype

[3] = tested on: bacterial species in which the gene showed activity; settings: cited from earlier work

TSSPPAAVVVRRRRRRRRRRRRRRRRRRR [PROA, Protamine, source herring, purchased from Sigma-Aldrich; cluster C3]
Relative change in MIC (MIC of the AMP-adpated line / MIC of the ancestral strain) ([1]; AMP-adapted line BAC5_3): 1.1 | Relative change in MIC (MIC of the AMP-adpated line / MIC of the ancestral strain) ([1]; AMP-adapted line BAC5_5): 1.015 | Relative change in MIC (MIC of the AMP-adpated line / MIC of the ancestral strain) ([1]; AMP-adapted line BAC5_7): 1.44 | Relative change in MIC (MIC of the AMP-adpated line / MIC of the ancestral strain) ([1]; AMP-adapted line BAC5_10): 1.728 | Relative change in MIC (MIC of the AMP-adpated line / MIC of the ancestral strain) ([1]; AMP-adapted line CAP18_2): 1.2 | Relative change in MIC (MIC of the AMP-adpated line / MIC of the ancestral strain) ([1]; AMP-adapted line CAP18_5): 0.7622 | Relative change in MIC (MIC of the AMP-adpated line / MIC of the ancestral strain) ([1]; AMP-adapted line CAP18_6): 0.7622 | Relative change in MIC (MIC of the AMP-adpated line / MIC of the ancestral strain) ([1]; AMP-adapted line CAP18_8): 1.22 | Relative change in MIC (MIC of the AMP-adpated line / MIC of the ancestral strain) ([1]; AMP-adapted line CAP18_10): 1.44 | Relative change in MIC (MIC of the AMP-adpated line / MIC of the ancestral strain) ([1]; AMP-adapted line HBD3_3): 1.464 | Relative change in MIC (MIC of the AMP-adpated line / MIC of the ancestral strain) ([1]; AMP-adapted line HBD3_6): 0.7639 | Relative change in MIC (MIC of the AMP-adpated line / MIC of the ancestral strain) ([1]; AMP-adapted line HBD3_8): 1.22 | Relative change in MIC (MIC of the AMP-adpated line / MIC of the ancestral strain) ([1]; AMP-adapted line HBD3_10): 1.584 | Relative change in MIC (MIC of the AMP-adpated line / MIC of the ancestral strain) ([1]; AMP-adapted line LL37_1): 0.7044 | Relative change in MIC (MIC of the AMP-adpated line / MIC of the ancestral strain) ([1]; AMP-adapted line LL37_3): 0.7622 | Relative change in MIC (MIC of the AMP-adpated line / MIC of the ancestral strain) ([1]; AMP-adapted line LL37_6): 0.48 | Relative change in MIC (MIC of the AMP-adpated line / MIC of the ancestral strain) ([1]; AMP-adapted line LL37_7): 1 | Relative change in MIC (MIC of the AMP-adpated line / MIC of the ancestral strain) ([1]; AMP-adapted line LL37_10): 0.48 | Relative change in MIC (MIC of the AMP-adpated line / MIC of the ancestral strain) ([1]; AMP-adapted line PEX_1): 1.2 | Relative change in MIC (MIC of the AMP-adpated line / MIC of the ancestral strain) ([1]; AMP-adapted line PEX_4): 1.728 | Relative change in MIC (MIC of the AMP-adpated line / MIC of the ancestral strain) ([1]; AMP-adapted line PEX_5): 0.915 | Relative change in MIC (MIC of the AMP-adpated line / MIC of the ancestral strain) ([1]; AMP-adapted line PEX_6): 2.0736 | Relative change in MIC (MIC of the AMP-adpated line / MIC of the ancestral strain) ([1]; AMP-adapted line PEX_7): 0.8472 | Relative change in MIC (MIC of the AMP-adpated line / MIC of the ancestral strain) ([1]; AMP-adapted line PR39_1): 2.99 | Relative change in MIC (MIC of the AMP-adpated line / MIC of the ancestral strain) ([1]; AMP-adapted line PR39_2): 1.2 | Relative change in MIC (MIC of the AMP-adpated line / MIC of the ancestral strain) ([1]; AMP-adapted line PR39_5): 1.2 | Relative change in MIC (MIC of the AMP-adpated line / MIC of the ancestral strain) ([1]; AMP-adapted line PR39_7): 1.73 | Relative change in MIC (MIC of the AMP-adpated line / MIC of the ancestral strain) ([1]; AMP-adapted line PR39_10): 1.44 | Relative change in MIC (MIC of the AMP-adpated line / MIC of the ancestral strain) ([1]; AMP-adapted line PXB_2): 1.7568 | Relative change in MIC (MIC of the AMP-adpated line / MIC of the ancestral strain) ([1]; AMP-adapted line PXB_5): 0.8333 | Relative change in MIC (MIC of the AMP-adpated line / MIC of the ancestral strain) ([1]; AMP-adapted line PXB_6): 1 | Relative change in MIC (MIC of the AMP-adpated line / MIC of the ancestral strain) ([1]; AMP-adapted line PXB_8): 1 | Relative change in MIC (MIC of the AMP-adpated line / MIC of the ancestral strain) ([1]; AMP-adapted line PXB_10): 1.44 | Overexpression phenotype, Literature ([2]; gene nlpE overexpressed, ref 6 (Griffin 2013)): Resistance^6 | Overexpression phenotype, Literature ([2]; gene ompT overexpressed, ref 4 (Stumpe et al. 1998)): Resistance^4 | Gene that modulates bacterial susceptibility to the AMP ([3]; Burkholderia cenocepacia, ref http://www.microbiologyresearch.org/docserver/fulltext/micro/155/9/2818.pdf?expires=1468919235&id=id&accname=guest&checksum=2CEA64BA8195145BE72C98BB20076627): zmpA | Gene that modulates bacterial susceptibility to the AMP ([3]; Burkholderia cenocepacia, ref http://www.microbiologyresearch.org/docserver/fulltext/micro/155/9/2818.pdf?expires=1468919235&id=id&accname=guest&checksum=2CEA64BA8195145BE72C98BB20076628): zmpB | Gene that modulates bacterial susceptibility to the AMP ([3]; Enterobacteriaceae, ref https://www.ncbi.nlm.nih.gov/pmc/articles/PMC3264287/, https://onlinelibrary.wiley.com/doi/full/10.1111/j.1348-0421.2010.00238.x, https://jb.asm.org/content/180/15/4002.full): ompT | Gene that modulates bacterial susceptibility to the AMP ([3]; Klebsiella pneumoniae, ref http://iai.asm.org/content/72/12/7107.full.pdf+html): cps | Gene that modulates bacterial susceptibility to the AMP ([3]; Proteus mirabilis, ref http://aac.asm.org/content/45/7/2030.long): sapD | Gene that modulates bacterial susceptibility to the AMP ([3]; Pseudomonas aeruginosa, Salmonella typhimurium, Escherichia coli, ref http://www.sciencemag.org/content/286/5444/1561.full.pdf, http://onlinelibrary.wiley.com/doi/10.1111/j.1365-2958.1995.tb02299.x/abstract, http://www.ncbi.nlm.nih.gov/pmc/articles/PMC50673/pdf/pnas01098-0300.pdf, https://jb.asm.org/content/jb/182/14/4077.full.pdf): phoP (PhoPQ) | Gene that modulates bacterial susceptibility to the AMP ([3]; Salmonella Typhimurium LT2, ref https://doi.org/10.1093/jac/dkq059): hemC (hem operon) | Gene that modulates bacterial susceptibility to the AMP ([3]; Salmonella enterica serovar Typhimurium, ref http://www.microbiologyresearch.org/docserver/fulltext/micro/154/2/666.pdf?expires=1487718158&id=id&accname=guest&checksum=D8B884D02A8B2A8619216A48E0826377): yejA | Gene that modulates bacterial susceptibility to the AMP ([3]; Salmonella enterica, Escherichia coli, ref http://www.ncbi.nlm.nih.gov/pmc/articles/PMC395316/pdf/emboj00065-0046.pdf http://www.ncbi.nlm.nih.gov/pmc/articles/PMC538956/pdf/1013-04.pd): sapA | Gene that modulates bacterial susceptibility to the AMP ([3]; Salmonella typhimurium, Escherichia coli, ref https://www.ncbi.nlm.nih.gov/pmc/articles/PMC3037666/, https://www.ncbi.nlm.nih.gov/pmc/articles/PMC3837802/pdf/zam7770.pdf): cpxA (CpxA/CpxR) | Gene that modulates bacterial susceptibility to the AMP ([3]; Salmonella typhimurium, Escherichia coli, ref https://www.ncbi.nlm.nih.gov/pmc/articles/PMC3037666/, https://www.ncbi.nlm.nih.gov/pmc/articles/PMC4808223/): amiA, amiC | Gene that modulates bacterial susceptibility to the AMP ([3]; Salmonella typhimurium, ref https://www.ncbi.nlm.nih.gov/pmc/articles/PMC3037666/): tatA | Gene that modulates bacterial susceptibility to the AMP ([3]; Staphylococcus aureus, SalmonellaTyphimurium, ref http://ac.els-cdn.com/S0022202X15369608/1-s2.0-S0022202X15369608-main.pdf?_tid=6fa51c80-693e-11e6-b18c-00000aacb362&acdnat=1471962936_8118358d97a056d7d78b5e8b4ca8d03b, https://www.sciencedirect.com/science/article/pii/S0928824401002917): hemB
